Measurements as given in patent US12636368B2, “Ionizable lipids for nucleic acid delivery” (Global Life Sciences Solutions Canada ULC, priority 2019, dated 2026).
Where two headings read alike, the source gives them in different places.

Assays:
[1] = TNS assay, surface pKa of lipid nanoparticles; format: physicochemical
Experimental: In embodiments of the invention, the experimental pKa of formulated lipid nanoparticles comprising lipids in Table 1 is calculated using the 2-(p-toluidinyl)naphthalene-6-sulfonic acid (TNS) assay. The procedure for the TNS assay is described in Example 25.
The pKa of each cationic lipid was determined in lipid nanoparticles using an assay based on fluorescence of 6-(p-Toluidino)-2-naphthalenesulfonic acid sodium salt (TNS, Sigma Aldrich), which is a fluorescent probe for the conformational state of proteins5. Empty lipid nanoparticles comprising ionizable lipid in LM02 composition in distilled water at a concentration of 3.125 mM total lipid are formulated using NanoAssemblr® Spark™, and were then was characterized for LNP quality on the Zetasizer™ using a 30× dilution with 1×PBS in the low volume cuvette. Lipid nanoparticles were further diluted 4× using distilled water to 0.781 mM total lipid. TNS was prepared as a 25 μM stock solution in distilled water. Then 6.4 μL of diluted LNP samples of 0.781 mM total lipid were mixed with 10 μL of diluted TNS to a final volume of 250 μL with buffer containing 10 mM HEPES, 10 mM MES, 10 mM NH4OAc and 130 mM NaCl where the pH ranged from 3 to 9 in 0.5 pH increments.
Samples were mixed thoroughly, and the fluorescence intensity was measured at room temperature in a BioTek™ Synergy™ H1 Hybrid Multi-Mode Monochromator™ Fluorescence Microplate Reader using excitation and emission wavelengths of 321 nm and 445 nm respectively. A sigmoidal best fit analysis was applied to the fluorescence data using GraphPad Prism™ software, and the pKa was measured as the pH at half-maximal fluorescence intensity.

[2] = tested on: isolated primary human T cells; experiment: GFP mRNA-LNP transfection of primary human T cells, flow cytometry; format: cell-based; settings: for GFP Protein expression score: Human T cell: Table 8, star score, legend not given
Experimental: Reagents were from Stemcell Technologies unless otherwise stated. Tcells were isolated from a single donor. At 48 h following lipid particle mRNA exposure, the treated T cells were harvested by transferring the cell suspensions to pre-labeled 1.5 mL tubes and centrifuged 300×g at 4 degrees C. for 10 minutes. Supernatant was removed and the pellet resuspended in PBS. An amount of 0.5 ul of BD Horizon™ Fixable Viability Stain 575V™ (BD Biosciences), was added, and the mixture incubated in the dark for 10 minutes at RT. This stain binds to amines.
The cells were centrifuged again as before, then washed twice with 1 mL of stain buffer (BSA, BD Pharminigen), and the washed pellet was diluted in 100 μl BSA. The following antibodies were added to each tube of treated cells in 2 μl volumes: CD25, CD8, CD4, (PerCP-Cy™ 5.5 Mouse Anti Human CD25, BV786 Mouse Anti-Human CD8 Clone RPA-T8, APC-Cy™7 Mouse Anti-Human CD4 Clone SK3 (all from BD Pharmingen) with the exception of the controls: in the eGFP only sample and viability control, no antibody was added. In the single stain compensation tubes, only one antibody per tube was added.
The tubes were incubated at 4 degrees C. for 30 min, whereupon […] of stain buffer was added, and the cells were centrifuged again. Cells were washed once with 1 mL of stain buffer and spun down again as in step one. Cell pellets were resuspended in 1 mL of stain buffer and added to pre-labeled flow tubes with cell strainer caps (Corning Falcon). […]
GFP MFI was measured by flow cytometry 48 hours after LNP addition. T cells were isolated from whole blood using a negative isolation procedure (EasySep™ Human T Cell Isolation Kit, Stemcell Technologies). T cells were dosed with mRNA-LNPs 3 days after activation with 500 ng of encapsulated mRNA per 125,000 cells. The LNP were CT10 compositions with an N/P of 8. Transfection efficiency (upper graph) and MFI (lower graph) were measured by flow cytometry 48 h after LNP addition.

[3] = Nucleic acid encapsulation efficiency by RiboGreen assay; format: physicochemical
Experimental: Messenger RNA or plasmid NAT was diluted using sodium acetate buffer to the required concentration. Lipid nucleic acid particle samples were then prepared by running both fluids using the NanoAssemblr® Spark instrument. […] The lipid nucleic acid particles made in the instrument were immediately diluted down with 48 μL Ca and Mg free 1×PBS at pH 7.4 in the aqueous output well. These nucleic acid lipid particles were immediately collected into microcentrifuge tubes containing 96 μL of Ca and Mg free 1×PBS at pH 7.4. Encapsulation efficiency was measured by a modified Ribogreen™ assay (Quanti-iT RiboGreen™ RNA assay kit, Fisher). Observed particle attributes were generally sized from 60-200 nm for mRNA, depending on lipid composition and method of production.
(§1) Physical characteristics of lipid nanoparticle (LNP) compositions comprising compounds according to Formula (I) and that were manufactured on the NanoAssemblr® Spark and Benchtop, are shown in Tables 6 and 7 below. Size, size variation of the LNP (PDI), encapsulation efficiency, and pKa are shown. The physical characteristics of these LNP are important from a standpoint of stability, biodistribution, and cell membrane crossing. There was good encapsulation in all the formulations, with polydispersity (PDI) under 0.3. Size and PDI were measured using dynamic light scattering techniques, and nucleic acid encapsulation efficiency was calculated from a modified Quant-iT RiboGreen RNA assay.

[4] = LNP size and PDI by dynamic light scattering; format: physicochemical
Experimental: After the lipid particles were made as described supra, particle size (hydrodynamic diameter of the particles) was determined by Dynamic Light Scattering (DLS) using a ZetaSizer™ Nano ZS™ (Malvern Instruments, UK). He/Ne laser tuned to 633 nm wavelength was used as the light source. Data were measured from the scattered intensity data conducted in backscattering detection mode (measurement angle=173). Measurements were an average of 10 runs of two cycles each per sample. Z-Average size was reported as the particle size, and is defined as the harmonic intensity averaged particle diameter.
as §1

[5] = Table 1, formulated lipid nanoparticles, TNS assay, read-out: Exp. pKa
[6] = Table 7, EPO mRNA LNPs, LM02, N/P 6
[7] = Table 6, GFP-encoded LNPs, CT10, N/P 8

## CCCCCCCCCCCCCC(=O)O[C@@H]1[C@@H](OC(=O)CCCCCCCCCCCCC)CO[C@@H]1COC(=O)CCCCN(C)C (racemic) [PNI 120]
[1]; [5]
  pKa: 7.71
[1]; Table 8, read-out: Exp.pKa
  pKa: 7.7
[2]
  GFP Protein expression score: Human T cell: Toxic

## CCCCC/C=C\C/C=C\CCCCCCCC(=O)O[C@@H]1[C@@H](OC(=O)CCCCCCC/C=C\C/C=C\CCCCC)CO[C@@H]1COC(=O)CCCCN(C)C (racemic) [PNI 122]
[1]; [5]
  pKa: 7.45
[1]; Table 8, read-out: Exp.pKa
  pKa: 7.45
[2]
  GFP Protein expression score: Human T cell: Toxic
[3]; [6]
  Encapsulation Efficiency (%): 99.3%
[4]; [6]
  Diameter (Z. ave, nm): 102.4 nm
  Polydispersity Index (PDI): 0.15

## CCCCC/C=C\C/C=C\CCCCCCCC(=O)O[C@@H]1[C@@H](OC(=O)CCCCCCC/C=C\C/C=C\CCCCC)CO[C@@H]1COC(=O)CCN(C)C (racemic) [PNI 321]
[1]; [5]
  pKa: 5.62
[1]; Table 8, read-out: Exp.pKa
  pKa: 5.62
[3]; [7]
  Encapsulation Efficiency (%): 92.4%
[3]; [6]
  Encapsulation Efficiency (%): 94.9%
[4]; [7]
  Diameter (Z. ave, nm): 68.6 nm
  Polydispersity Index (PDI): 0.07
[4]; [6]
  Diameter (Z. ave, nm): 60.0 nm
  Polydispersity Index (PDI): 0.09

## CCCCC/C=C\C/C=C\CCCCCCCC(=O)O[C@@H]1[C@@H](OC(=O)CCCCCCC/C=C\C/C=C\CCCCC)CO[C@@H]1COC(=O)Cc1cn(C)cn1 (racemic) [PNI 336]
[1]; [5]
  pKa: 4.57
[1]; Table 8, read-out: Exp.pKa
  pKa: 4.57
[3]; [7]
  Encapsulation Efficiency (%): 86.6%
[3]; [6]
  Encapsulation Efficiency (%): 89.8%
[4]; [7]
  Diameter (Z. ave, nm): 79.6 nm
  Polydispersity Index (PDI): 0.07
[4]; [6]
  Diameter (Z. ave, nm): 64.3 nm
  Polydispersity Index (PDI): 0.06

## CCCCCCCCC1CC1CCCCCCCC(=O)O[C@@H]1[C@@H](OC(=O)CCCCCCCC2CC2CCCCCCCC)CO[C@@H]1COC(=O)CCN(C)C (mixture of isomers) [PNI 342]
[1]; [5]
  pKa: 6.11
[1]; Table 8, read-out: Exp.pKa
  pKa: 6.11
[3]; [6]
  Encapsulation Efficiency (%): 97.2%
[4]; [6]
  Diameter (Z. ave, nm): 58.2 nm
  Polydispersity Index (PDI): 0.04

## CCCCCCCCCCCC(=O)O[C@@H]1[C@@H](OC(=O)CCCCCCCCCCC)CO[C@@H]1COC(=O)CCN(C)C (racemic) [PNI 534]
[1]; [5]
  pKa: 6.42
[1]; Table 8, read-out: Exp.pKa
  pKa: 5.97
[3]; [7]
  Encapsulation Efficiency (%): 49.3%
[3]; [6]
  Encapsulation Efficiency (%): 89.4%
[4]; [7]
  Diameter (Z. ave, nm): 107.1 nm
  Polydispersity Index (PDI): 0.29
[4]; [6]
  Diameter (Z. ave, nm): 75.0 nm
  Polydispersity Index (PDI): 0.15

## CCCCCCCCC(CCCCCC)C(=O)O[C@@H]1[C@@H](OC(=O)C(CCCCCC)CCCCCCCC)CO[C@@H]1COC(=O)CCN(C)C (mixture of isomers) [PNI 535]
[1]; [5]
  pKa: 4.99
[1]; Table 8, read-out: Exp.pKa
  pKa: 4.99
[2]
  GFP Protein expression score: Human T cell: Not Active
[3]; [7]
  Encapsulation Efficiency (%): 91.7%
[3]; [6]
  Encapsulation Efficiency (%): 82.2%
[4]; [7]
  Diameter (Z. ave, nm): 133.1 nm
  Polydispersity Index (PDI): 0.07
[4]; [6]
  Diameter (Z. ave, nm): 54.2 nm
  Polydispersity Index (PDI): 0.11

## CCCCC/C=C\C/C=C\CCCCCCCC(=O)O[C@@H]1[C@@H](OC(=O)CCCCCCC/C=C\C/C=C\CCCCC)CO[C@@H]1COC(=O)CC1CCN(C)C1 (mixture of isomers) [PNI 538]
[1]; [5]
  pKa: 6.79
[1]; Table 8, read-out: Exp.pKa
  pKa: 6.79
[3]; [6]
  Encapsulation Efficiency (%): 98.7%
[4]; [6]
  Diameter (Z. ave, nm): 67.0 nm
  Polydispersity Index (PDI): 0.11

## CCCCCCCCC1CC1CCCCCCCC(=O)O[C@@H]1[C@@H](OC(=O)CCCCCCCC2CC2CCCCCCCC)CO[C@@H]1COC(=O)C1(C)CCN(C)CC1 (mixture of isomers) [PNI 541]
[1]; [5]
  pKa: 6.46
[1]; Table 8, read-out: Exp.pKa
  pKa: 6.46
[2]
  amount of protein produced (MFIs) compared with MC3: better than MC3
[2]; FIG. 5, CT10, N/P 8, 500 ng mRNA per 125,000 cells, 3 days after activation, 48 h
  protein expression (GFP MFI) compared with MC3: higher levels of protein expression than MC3
[2]; summary
  amount of protein produced (MFI) in human T cells compared with MC3: better than MC3
[3]; [7]
  Encapsulation Efficiency (%): 73.5%
[3]; [6]
  Encapsulation Efficiency (%): 97.1%
[4]; [7]
  Diameter (Z. ave, nm): 109.4 nm
  Polydispersity Index (PDI): 0.28
[4]; [6]
  Diameter (Z. ave, nm): 73.8 nm
  Polydispersity Index (PDI): 0.06

## CCCCC/C=C\C/C=C\CCCCCCCC(=O)O[C@H]1COC(COC(=O)CN2CCN(C)CC2)[C@@H]1OC(=O)CCCCCCC/C=C\C/C=C\CCCCC (mixture of isomers) [PNI 574]
[1]; [5]
  pKa: 6.66

## CCCCC/C=C\C/C=C\CCCCCCCC(=O)O[C@H]1COC(COC(=O)C23CCN(CC2)CC3)[C@@H]1OC(=O)CCCCCCC/C=C\C/C=C\CCCCC (stereo in doubt) [PNI 573]
[1]; [5]
  pKa: 7.79

## CCCCC/C=C\C/C=C\CCCCCCCC(=O)O[C@H]1COC(COC(=O)C2CCCN(C)C2)[C@@H]1OC(=O)CCCCCCC/C=C\C/C=C\CCCCC (stereo in doubt) [PNI 575]
[1]; [5]
  pKa: 5.51

## CCCCCCCCC1CC1CCCCCCCC(=O)O[C@@H]1[C@@H](OC(=O)CCCCCCCC2CC2CCCCCCCC)CO[C@@H]1COC(=O)C1CCN(C2CC2)CC1 (stereo in doubt) [PNI 576]
[1]; [5]
  pKa: 4.24

## CCCCCCCCC1CC1CCCCCCCC(=O)O[C@@H]1[C@@H](OC(=O)CCCCCCCC2CC2CCCCCCCC)CO[C@@H]1COC(=O)C1CCN(CC)CC1 (stereo in doubt) [PNI 577]
[1]; [5]
  pKa: 6.45

## CCCCCCCCC1CC1CCCCCCCC(=O)O[C@@H]1[C@@H](OC(=O)CCCCCCCC2CC2CCCCCCCC)CO[C@@H]1COC(=O)CC1CCCCN1C (stereo in doubt) [PNI 578]
[1]; [5]
  pKa: 5.87

## CCCCCCCCC(CCCCCC)C(=O)O[C@@H]1[C@@H](OC(=O)C(CCCCCC)CCCCCCCC)CO[C@@H]1COC(=O)C1(C)CCN(C)CC1 (stereo in doubt) [PNI 579]
[1]; [5]
  pKa: 5.32

## CCCCCCCCC(CCCCCC)C(=O)O[C@@H]1[C@@H](OC(=O)C(CCCCCC)CCCCCCCC)CO[C@@H]1COC(=O)CCCN(C)C (stereo in doubt) [PNI 580]
[1]; [5]
  pKa: 5.69

## CCCCCCCCCCCCCC(=O)O[C@@H]1[C@@H](OC(=O)CCCCCCCCCCCCC)CO[C@@H]1COC(=O)CCN(C)C [PNI 344]
[1]; [5]
  pKa: 6.93
[1]; Table 8, read-out: Exp.pKa
  pKa: 6.93

## CCCCCC/C=C\COC(=O)CCCCCCC(=O)O[C@@H]1[C@@H](OC(=O)CCCCCCC(=O)OC/C=C\CCCCCC)CO[C@@H]1COC(=O)CCN(C)C [PNI 532]
[1]; [5]
  pKa: 5.97
[1]; Table 8, read-out: Exp.pKa
  pKa: 5.97
[3]; [6]
  Encapsulation Efficiency (%): 37.3%
[4]; [6]
  Diameter (Z. ave, nm): 144.3 nm
  Polydispersity Index (PDI): 0.15

## CC/C=C\CC1C(CC(=O)OCCC(CCCCCCCC)OC(=O)C(CCCCCC)CCCCCCCC)CCC1OC(=O)C1(C)CCN(C)CC1 (stereo not shown) [PNI-565]
[2]
  amount of protein produced (MFIs) compared with MC3: better than MC3
